Legend:
[1] = test system: Smn protein in SMA patient fibroblast cells (GM03813); assay: Smn protein assay in cultured cells (SMN HTRF); format: cell-based, human; details: SMA patient fibroblast cells, 48 hours; for EC1.5x for Smn protein expression: 7-point concentration curve, SMN HTRF, concentration producing 1.5 times Smn protein vs DMSO vehicle control; for maximum fold (Fold) increase of Smn protein: 7-point concentration data, fold relative to vehicle control
Summary of the method: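 Patient-derived SMA fibroblasts are plated, given compound for 48 h, then lysed in RIPA buffer with protease inhibitors. Lysate Smn is detected by an anti-SMN d2/kryptate HTRF pair incubated overnight. The normalized ΔF is divided by the vehicle ΔF to give fold change, from which EC1.5× and maximum fold are taken.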

[2] = test system: SMN2 minigene mRNA (SMN2-A minigene) in HEK293H cells; assay: SMN2 minigene mRNA splicing RT-qPCR assay in cultured cells; format: cell-based, human; details: Homo sapiens, HEK293-H; concentration increasing full length SMN2 mRNA 1.5-fold relative to vehicle-treated cells; HEK293H cells with SMN2-A minigene, 24 hours, 7-point concentration data; read-out: EC1.5x for production of full length SMN2 mRNA
Summary of the method: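 Cells are seeded, left to attach 4-6 h, then dosed with test compound across seven concentrations and incubated 24 h. Lysates undergo RT-qPCR with primers/probe specific to the exon 7-containing minigene transcript, co-amplified with GAPDH. Fold change over vehicle is calculated, and EC1.5× marks the 1.5-fold point.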

Compound	EC1.5x for Smn protein expression [1]	maximum fold (Fold) increase of Smn protein [1]	EC (1.5-fold increase) [2]
CCc1nc(C)cn2nc(-c3cc(=O)n4cc(N5CCN(CC)CC5)cc(C)c4n3)cc12 [Compound 817, 2-(4-ethyl-6-methylpyrazolo[1,5-a]pyrazin-2-yl)-7-(4-ethylpiperazin-1-yl)-9-methyl-4H-pyrido[1,2-a]pyrimidin-4-one]	**** (an EC1.5x≤0.3 μM is indicated by four stars (****))	***** (a fold increase >1.65 is indicated by five stars (*****))	< 0.1 µM
CCc1nc(C)cn2nc(-c3cc(=O)n4cc(N5CCN6CCC[C@H]6C5)cc(C)c4n3)cc12 [Compound 818, 2-(4-ethyl-6-methylpyrazolo[1,5-a]pyrazin-2-yl)-7-[(8aS)-hexahydropyrrolo[1,2-a]pyrazin-2(1H)-yl]-9-methyl-4H-pyrido[1,2-a]pyrimidin-4-one]	*** (an EC1.5× between >0.3 μM and ≤1 μM is indicated by three stars (***))	***** (a fold increase >1.65 is indicated by five stars (*****))	0.1 to 0.3 µM
CCN1CCN(c2ccc3nc(-c4cc(C)c5nc(C)cn5c4)cc(=O)n3c2)CC1 [Compound 819, 2-(2,8-dimethylimidazo[1,2-a]pyridin-6-yl)-7-(4-ethylpiperazin-1-yl)-4H-pyrido[1,2-a]pyrimidin-4-one]	**** (an EC1.5x≤0.3 μM is indicated by four stars (****))	***** (a fold increase >1.65 is indicated by five stars (*****))	< 0.1 µM
Cc1cn2cc(-c3cc(=O)n4cc(N5CCN6CCC[C@H]6C5)ccc4n3)cc(C)c2n1 [Compound 820, 2-(2,8-dimethylimidazo[1,2-a]pyridin-6-yl)-7-[(8aS)-hexahydropyrrolo[1,2-a]pyrazin-2(1H)-yl]-4H-pyrido[1,2-a]pyrimidin-4-one]	**** (an EC1.5x≤0.3 μM is indicated by four stars (****))	***** (a fold increase >1.65 is indicated by five stars (*****))	< 0.1 µM
Cc1cn2cc(-c3cc(=O)n4cc(N5CCN6CCCC6(C)C5)ccc4n3)cc(C)c2n1 (centres unmarked) [Compound 821, 2-(2,8-dimethylimidazo[1,2-a]pyridin-6-yl)-7-(8a-methylhexahydropyrrolo[1,2-a]pyrazin-2(1H)-yl)-4H-pyrido[1,2-a]pyrimidin-4-one]	**** (an EC1.5x≤0.3 μM is indicated by four stars (****))	***** (a fold increase >1.65 is indicated by five stars (*****))	< 0.1 µM
CCc1nc(C)cn2nc(-c3cc(=O)n4cc(N5CC[C@@H](N(C)C)C5)cc(C)c4n3)cc12 [Compound 822, 7-[(3R)-3-(dimethylamino)pyrrolidin-1-yl]-2-(4-ethyl-6-methylpyrazolo[1,5-a]pyrazin-2-yl)-9-methyl-4H-pyrido[1,2-a]pyrimidin-4-one]	*** (an EC1.5× between >0.3 μM and ≤1 μM is indicated by three stars (***))	**** (a fold increase between >1.5 and ≤1.65 is indicated by four stars (****))	0.1 to 0.3 µM
CCc1nc(C)cn2nc(-c3cc(=O)n4cc(NCCN5CCOCC5)ccc4n3)cc12 [Compound 823, 2-(4-ethyl-6-methylpyrazolo[1,5-a]pyrazin-2-yl)-7-{[2-(morpholin-4-yl)ethyl]amino}-4H-pyrido[1,2-a]pyrimidin-4-one]	–	** (a fold increase between >1.2 and ≤1.35 is indicated by two stars (**))	3 to 30 µM
CCc1nc(C)cn2nc(-c3cc(=O)n4cc(NCCN(C)C)ccc4n3)cc12 [Compound 824, 7-{[2-(dimethylamino)ethyl]amino}-2-(4-ethyl-6-methylpyrazolo[1,5-a]pyrazin-2-yl)-4H-pyrido[1,2-a]pyrimidin-4-one]	* (An EC1.5× for Smn protein expression between >3 μM and ≤10 μM is indicated by one star (*))	**** (a fold increase between >1.5 and ≤1.65 is indicated by four stars (****))	0.3 to 1 µM
CCc1nc(C)cn2nc(-c3cc(=O)n4cc(N(C)CCN(C)C)ccc4n3)cc12 [Compound 825, 7-{[2-(dimethylamino)ethyl](methyl)amino}-2-(4-ethyl-6-methylpyrazolo[1,5-a]pyrazin-2-yl)-4H-pyrido[1,2-a]pyrimidin-4-one]	** (an EC1.5× between >1 μM and ≤3 μM is indicated by two stars (**))	***** (a fold increase >1.65 is indicated by five stars (*****))	0.3 to 1 µM
CCc1nc(C)cn2nc(-c3cc(=O)n4cc(N(C)CCNC)ccc4n3)cc12 [Compound 826, 2-(4-ethyl-6-methylpyrazolo[1,5-a]pyrazin-2-yl)-7-{methyl[2-(methylamino)ethyl]amino}-4H-pyrido[1,2-a]pyrimidin-4-one]	** (an EC1.5× between >1 μM and ≤3 μM is indicated by two stars (**))	***** (a fold increase >1.65 is indicated by five stars (*****))	0.1 to 0.3 µM
Cc1cn2cc(-c3cc(=O)n4cc(N5CC[C@@H](N(C)C)C5)ccc4n3)cc(C)c2n1 [Compound 827, 7-[(3R)-3-(dimethylamino)pyrrolidin-1-yl]-2-(2,8-dimethylimidazo[1,2-a]pyridin-6-yl)-4H-pyrido[1,2-a]pyrimidin-4-one]	*** (an EC1.5× between >0.3 μM and ≤1 μM is indicated by three stars (***))	***** (a fold increase >1.65 is indicated by five stars (*****))	< 0.1 µM
Cc1cn2cc(-c3cc(=O)n4cc(N5CC[C@H](N(C)C)C5)ccc4n3)cc(C)c2n1 [Compound 828, 7-[(3S)-3-(dimethylamino)pyrrolidin-1-yl]-2-(2,8-dimethylimidazo[1,2-a]pyridin-6-yl)-4H-pyrido[1,2-a]pyrimidin-4-one]	**** (an EC1.5x≤0.3 μM is indicated by four stars (****))	***** (a fold increase >1.65 is indicated by five stars (*****))	< 0.1 µM
CCc1nc(C)cn2nc(-c3cc(=O)n4cc(OCCN(C)C)cc(C)c4n3)cc12 [Compound 829, 7-[2-(dimethylamino)ethoxy]-2-(4-ethyl-6-methylpyrazolo[1,5-a]pyrazin-2-yl)-9-methyl-4H-pyrido[1,2-a]pyrimidin-4-one]	** (an EC1.5× between >1 μM and ≤3 μM is indicated by two stars (**))	***** (a fold increase >1.65 is indicated by five stars (*****))	0.1 to 0.3 µM
CCc1nc(C)cn2nc(-c3cc(=O)n4cc(OCCN(C)C)ccc4n3)cc12 [Compound 830, 7-[2-(dimethylamino)ethoxy]-2-(4-ethyl-6-methylpyrazolo[1,5-a]pyrazin-2-yl)-4H-pyrido[1,2-a]pyrimidin-4-one]	*** (an EC1.5× between >0.3 μM and ≤1 μM is indicated by three stars (***))	***** (a fold increase >1.65 is indicated by five stars (*****))	< 0.1 µM

Source: patent US11753407B2, “Compounds for treating spinal muscular atrophy” (PTC Therapeutics, Inc., priority 2012, dated 2023)
